Earlier results, collected in patent publication US20040235879A1, “Method for treatment of chemotherapy-induced diarrhea” (priority 2003, published 2004).
Where a name gives a salt, the structure may show the parent alone.

How the values were obtained:
[1] = cited from earlier work
BCRP/MXR/ABCP (ABCG2) = target: T1, BCRP/MXR/ABCP (ABCG2) (Homo sapiens, UniProt Q9UNQ0); details: cited from earlier work
T1 sequence (Q9UNQ0 1-655): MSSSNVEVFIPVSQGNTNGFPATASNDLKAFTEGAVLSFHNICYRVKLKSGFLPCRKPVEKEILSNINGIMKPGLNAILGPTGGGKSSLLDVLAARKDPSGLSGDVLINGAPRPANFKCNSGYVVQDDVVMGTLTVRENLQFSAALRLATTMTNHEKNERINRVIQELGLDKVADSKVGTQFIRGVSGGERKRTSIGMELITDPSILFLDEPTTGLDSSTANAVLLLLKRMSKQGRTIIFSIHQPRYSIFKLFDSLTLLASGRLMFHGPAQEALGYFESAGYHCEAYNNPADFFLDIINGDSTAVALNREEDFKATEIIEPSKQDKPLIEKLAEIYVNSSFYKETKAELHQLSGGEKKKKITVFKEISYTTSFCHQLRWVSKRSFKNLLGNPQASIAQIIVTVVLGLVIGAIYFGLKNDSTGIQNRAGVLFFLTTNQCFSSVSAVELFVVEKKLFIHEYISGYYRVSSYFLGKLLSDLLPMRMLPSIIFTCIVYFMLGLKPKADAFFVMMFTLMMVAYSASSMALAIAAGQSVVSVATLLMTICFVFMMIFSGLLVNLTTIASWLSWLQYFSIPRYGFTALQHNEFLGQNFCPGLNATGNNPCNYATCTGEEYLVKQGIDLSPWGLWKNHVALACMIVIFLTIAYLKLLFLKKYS

MRP2 (ABCC2) = MRP2 (ABCC2) (Homo sapiens, UniProt Q92887); details: cited from earlier work
P-gp (ABCB1) = P-gp (ABCB1) (Homo sapiens, UniProt P08183); details: cited from earlier work
Sequence of P-gp (ABCB1) (P08183 whole entry, species assumed): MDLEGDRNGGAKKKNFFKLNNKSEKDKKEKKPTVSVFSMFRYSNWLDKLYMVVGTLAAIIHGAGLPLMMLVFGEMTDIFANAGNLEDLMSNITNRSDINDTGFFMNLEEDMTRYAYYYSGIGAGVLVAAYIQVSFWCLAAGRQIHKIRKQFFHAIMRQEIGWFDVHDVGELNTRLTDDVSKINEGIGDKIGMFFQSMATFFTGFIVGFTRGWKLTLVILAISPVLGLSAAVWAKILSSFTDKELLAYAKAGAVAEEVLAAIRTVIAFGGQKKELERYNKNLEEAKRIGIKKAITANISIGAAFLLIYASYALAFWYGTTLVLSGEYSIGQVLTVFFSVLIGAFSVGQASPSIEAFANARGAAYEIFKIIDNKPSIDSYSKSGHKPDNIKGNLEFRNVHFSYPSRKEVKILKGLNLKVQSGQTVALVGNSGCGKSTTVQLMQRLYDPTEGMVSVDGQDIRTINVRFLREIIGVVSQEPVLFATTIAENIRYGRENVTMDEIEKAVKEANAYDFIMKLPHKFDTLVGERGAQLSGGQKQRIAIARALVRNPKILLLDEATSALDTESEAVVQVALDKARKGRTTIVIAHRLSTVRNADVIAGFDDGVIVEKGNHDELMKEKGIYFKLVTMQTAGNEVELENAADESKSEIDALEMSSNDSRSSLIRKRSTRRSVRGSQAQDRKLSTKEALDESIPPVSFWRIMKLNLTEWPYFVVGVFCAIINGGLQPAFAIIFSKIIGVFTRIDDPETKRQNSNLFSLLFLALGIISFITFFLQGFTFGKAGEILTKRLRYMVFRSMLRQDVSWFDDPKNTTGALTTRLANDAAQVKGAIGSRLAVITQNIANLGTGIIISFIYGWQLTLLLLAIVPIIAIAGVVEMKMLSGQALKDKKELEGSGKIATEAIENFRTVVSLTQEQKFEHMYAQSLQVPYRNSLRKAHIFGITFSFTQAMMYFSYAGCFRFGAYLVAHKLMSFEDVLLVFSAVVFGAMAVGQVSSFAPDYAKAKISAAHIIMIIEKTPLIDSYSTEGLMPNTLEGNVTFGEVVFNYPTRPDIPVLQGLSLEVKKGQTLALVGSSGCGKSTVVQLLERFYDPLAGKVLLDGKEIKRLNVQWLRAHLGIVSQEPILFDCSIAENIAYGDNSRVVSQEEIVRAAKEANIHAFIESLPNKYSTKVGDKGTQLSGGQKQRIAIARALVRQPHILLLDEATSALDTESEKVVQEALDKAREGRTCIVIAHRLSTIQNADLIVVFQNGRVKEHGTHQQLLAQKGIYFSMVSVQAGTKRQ

Sequence of MRP2 (ABCC2) (Q92887 whole entry, species assumed): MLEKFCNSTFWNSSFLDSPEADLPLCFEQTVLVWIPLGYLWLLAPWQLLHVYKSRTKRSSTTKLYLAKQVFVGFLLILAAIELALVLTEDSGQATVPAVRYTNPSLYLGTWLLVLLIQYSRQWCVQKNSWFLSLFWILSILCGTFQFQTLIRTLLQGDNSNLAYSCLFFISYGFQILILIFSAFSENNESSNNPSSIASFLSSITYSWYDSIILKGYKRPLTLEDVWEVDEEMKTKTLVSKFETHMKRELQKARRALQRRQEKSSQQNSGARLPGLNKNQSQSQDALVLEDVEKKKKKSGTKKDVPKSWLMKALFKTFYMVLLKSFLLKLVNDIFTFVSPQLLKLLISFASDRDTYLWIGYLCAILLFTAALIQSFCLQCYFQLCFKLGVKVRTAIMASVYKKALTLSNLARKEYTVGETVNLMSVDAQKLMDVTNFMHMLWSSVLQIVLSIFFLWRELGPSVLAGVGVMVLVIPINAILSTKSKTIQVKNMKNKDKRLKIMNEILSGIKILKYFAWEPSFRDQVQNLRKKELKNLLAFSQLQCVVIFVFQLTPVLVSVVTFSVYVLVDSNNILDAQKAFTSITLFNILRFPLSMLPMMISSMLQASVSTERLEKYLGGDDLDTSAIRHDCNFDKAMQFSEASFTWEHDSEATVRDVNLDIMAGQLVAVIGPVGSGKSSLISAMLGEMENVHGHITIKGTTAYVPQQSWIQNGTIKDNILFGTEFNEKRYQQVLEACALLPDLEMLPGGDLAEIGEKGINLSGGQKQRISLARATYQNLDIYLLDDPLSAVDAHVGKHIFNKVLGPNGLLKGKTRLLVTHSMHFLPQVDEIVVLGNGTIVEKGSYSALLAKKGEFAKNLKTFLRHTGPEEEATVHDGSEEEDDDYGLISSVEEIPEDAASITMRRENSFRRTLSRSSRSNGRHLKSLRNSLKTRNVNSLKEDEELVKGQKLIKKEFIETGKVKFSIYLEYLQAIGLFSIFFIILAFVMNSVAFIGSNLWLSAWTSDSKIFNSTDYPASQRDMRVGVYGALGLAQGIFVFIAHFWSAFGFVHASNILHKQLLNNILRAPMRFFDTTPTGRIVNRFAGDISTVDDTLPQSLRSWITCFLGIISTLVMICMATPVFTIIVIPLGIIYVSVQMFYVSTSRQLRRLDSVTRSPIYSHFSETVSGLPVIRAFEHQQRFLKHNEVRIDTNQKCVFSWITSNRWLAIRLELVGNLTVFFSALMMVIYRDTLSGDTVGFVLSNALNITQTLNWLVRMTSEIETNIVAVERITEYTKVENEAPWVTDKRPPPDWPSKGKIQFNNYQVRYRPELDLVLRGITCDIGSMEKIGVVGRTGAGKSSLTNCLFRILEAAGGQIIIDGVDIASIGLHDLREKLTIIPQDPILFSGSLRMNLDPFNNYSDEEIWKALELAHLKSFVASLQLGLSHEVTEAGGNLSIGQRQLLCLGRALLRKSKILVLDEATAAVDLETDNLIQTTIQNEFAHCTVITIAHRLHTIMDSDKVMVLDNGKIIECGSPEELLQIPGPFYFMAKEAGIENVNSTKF

For `CCc1c2c(nc3ccc(OC(=O)N4CCC(N5CCCCC5)CC4)cc13)-c1cc3c(c(=O)n1C2)COC(=O)[C@]3(O)CC` [CPT-11, Irinotecan hydrochloride], the “patients requiring hospitalization because of diarrhea” value ([1]; diarrhea alone or in combination with other gastrointestinal disturbances) is listed as “more than 18%”.

In the case of `CCc1c2c(nc3ccc(OC(=O)N4CCC(N5CCCCC5)CC4)cc13)-c1cc3c(c(=O)n1C2)COC(=O)[C@]3(O)CC` [irinotecan, [1,4′-Bipiperidine]-1′-carboxylic acid (4S)-4,11-diethyl-3,4,12,14-tetrahydro-4-hydroxy-3,14-dioxo-1H-pyrano[3′,4′:6,7]indolizino[1,2-b]quinolin-9-yl ester], the “substrate of BCRP/MXR/ABCP (ABCG2)” value (BCRP/MXR/ABCP (ABCG2)) is given as “substrate”, the “substrate of MRP2 (ABCC2)” value (MRP2 (ABCC2)) is given as “substrate” and the “substrate of P-gp (ABCB1)” value (P-gp (ABCB1)) is given as “substrate”.

In the case of `O=c1[nH]cc(F)c(=O)[nH]1` [5-fluorouracil], the “patients with severe or life-threatening diarrhea” value ([1]; 5-fluorouracil alone) is listed as “About 8%” and the “frequency of severe or life-threatening diarrhea” value ([1]; 5-fluorouracil combined with leucovorin) is listed as “up to 25%”.
